# Reference: patent publication US12649723B2, “Carbonohydrazonoyl dicyanide compounds comprising 2 or more aryl or heteroaryl connected via linker and use thereof” (KOREA INSTITUTE OF SCIENCE AND TECHNOLOGY, priority 2020, dated 2026)
# Key:
# tau protein = biological target: T1, tau protein (Homo sapiens, UniProt P10636); test: Tau-BiFC cell model: inhibition of tau protein aggregation; assay type: cell-based; settings: for remaining activity at 10 µM: compound 10 μM, BiFC fluorescence, read-out: Response (% @10 μM); for IC50: Tau BiFC in cells, with Forskolin 30 μM, 48 hours
# T1 construct: fused on or other part: Split fluorescent-protein halves for BiFC are fused to tau; In the published tau-BiFC line these are Venus VN173 and VC155
# T1 sequence (P10636 2-441 isoform P10636-8 limits assumed): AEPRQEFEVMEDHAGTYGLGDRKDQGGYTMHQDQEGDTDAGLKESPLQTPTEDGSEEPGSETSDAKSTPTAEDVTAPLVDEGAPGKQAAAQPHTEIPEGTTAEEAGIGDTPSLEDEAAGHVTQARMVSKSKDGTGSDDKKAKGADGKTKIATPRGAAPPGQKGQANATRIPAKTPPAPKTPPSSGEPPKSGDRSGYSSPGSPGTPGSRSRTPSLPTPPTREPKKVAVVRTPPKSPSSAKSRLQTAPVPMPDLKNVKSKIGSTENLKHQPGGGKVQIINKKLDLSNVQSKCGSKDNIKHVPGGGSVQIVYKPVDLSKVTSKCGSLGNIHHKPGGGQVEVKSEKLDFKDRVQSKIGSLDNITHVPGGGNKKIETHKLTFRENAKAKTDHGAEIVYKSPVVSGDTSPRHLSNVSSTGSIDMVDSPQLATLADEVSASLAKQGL
# Summary of the method: (§1)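 Tau-BiFC cells were exposed for 48 h to compound (1, 3, 10 μM for screening; 0.03–30 μM for dose-response) plus 30 μM Forskolin to induce aggregation. BiFC fluorescence was normalised to Forskolin-only minus untreated controls, with IC50 from nonlinear regression. Viability was Hoechst-stained nuclei counts relative to Forskolin-only wells.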
# Tau-BiFC cells = test: Cell viability (cytotoxicity) in tau-BiFC cells, count of stained nuclei; assay type: cell-based; settings: Forskolin-only group = 100% cell viability; for Cell viability (% @10 μM): compound 10 μM
# Summary of the method: as §1
# [1] = 48 h, Forskolin-only group = 100% tau protein-aggregated state
structure (smiles),measurement,setting,value
"N#CC(C#N)=NNc1ccc(OCCc2ccccc2)nc1 [Compound 100, (6-phenethoxypyridin-3-yl)carbonohydrazonoyl dicyanide]",remaining activity at 10 µM,tau protein; [1],0%
same,IC50,tau protein,780 nM
same,Cell viability (% @10 μM),Tau-BiFC cells,39.4%
"N#CC(C#N)=NNc1ccc(C(=O)Nc2cncnc2)cc1 [Compound 50, (4-(pyrimidin-5-ylcarbamoyl)phenyl)carbonohydrazonoyl dicyanide]",remaining activity at 10 µM,tau protein; [1],86.6%
same,Cell viability (% @10 μM),Tau-BiFC cells,116.4%
"COc1ccc(S(=O)(=O)Nc2ccc(NN=C(C#N)C#N)cn2)cc1 [Compound 59, (6-(4-methoxyphenylsulfonamido)pyridin-3-yl)carbonohydrazonoyl dicyanide]",remaining activity at 10 µM,tau protein; [1],74.3%
same,Cell viability (% @10 μM),Tau-BiFC cells,128.2%
"Cc1cncc(NC(=O)c2ccc(NN=C(C#N)C#N)cn2)c1 [Compound 39, (6-(5-methylpyridin-3-ylcarbamoyl)pyridin-3-yl)carbonohydrazonoyl dicyanide]",remaining activity at 10 µM,tau protein; [1],0%
same,IC50,tau protein,630 nM
same,Cell viability (% @10 μM),Tau-BiFC cells,131.1%
"Cc1cc(NN=C(C#N)C#N)ccc1Oc1cccnc1 [Compound 74, (3-methyl-4-(pyridin-3-yloxy)phenyl)carbonohydrazonoyl dicyanide]",remaining activity at 10 µM,tau protein; [1],0%
same,IC50,tau protein,440 nM
same,Cell viability (% @10 μM),Tau-BiFC cells,92.7%
"Cc1ccc(NS(=O)(=O)c2ccc(NN=C(C#N)C#N)cc2)cn1 [Compound 65, (4-(N-(6-methylpyridin-3-yl)sulfamoyl)phenyl)carbonohydrazonoyl dicyanide]",remaining activity at 10 µM,tau protein; [1],72.6%
same,Cell viability (% @10 μM),Tau-BiFC cells,111.4%
"N#CC(C#N)=NNc1ccc(OCCc2ccccc2)cc1 [Compound 122, (4-phenethoxyphenyl)carbonohydrazonoyl Dicyanide]",remaining activity at 10 µM,tau protein; [1],11.7%
same,IC50,tau protein,1860 nM
same,Cell viability (% @10 μM),Tau-BiFC cells,92.9%
"COc1ccc(CCOc2ccc(NN=C(C#N)C#N)cn2)cc1 [Compound 102, (6-(4-methoxyphenethoxy)pyridin-3-yl)carbonohydrazonoyl dicyanide]",remaining activity at 10 µM,tau protein; [1],0%
same,IC50,tau protein,960 nM
same,Cell viability (% @10 μM),Tau-BiFC cells,54.5%
"N#CC(C#N)=NNc1ccc(Oc2ccccc2F)cc1 [Compound 93, (4-(2-fluorophenoxy)phenyl)carbonohydrazonoyl dicyanide]",remaining activity at 10 µM,tau protein; [1],0%
same,IC50,tau protein,1290 nM
same,Cell viability (% @10 μM),Tau-BiFC cells,66.5%
"Cc1ccc(COc2ccc(NN=C(C#N)C#N)cc2)cc1 [Compound 119, (4-(4-methylbenzyloxy)phenyl)carbonohydrazonoyl dicyanide]",remaining activity at 10 µM,tau protein; [1],38.9%
same,IC50,tau protein,3550 nM
same,Cell viability (% @10 μM),Tau-BiFC cells,112.5%
"CC(Oc1ccc(NN=C(C#N)C#N)cc1)c1ccc(C(F)(F)F)cc1 (centres unmarked) [Compound 139, (4-(1-(4-(trifluoromethyl)phenyl)ethoxy)phenyl)carbonohydrazonoyl dicyanide]",remaining activity at 3 µM,"tau protein; 48 h, compounds marked *: measured at 3 μM, Forskolin-only group = 100% tau protein-aggregated state, read-out: Response",39%
same,Cell viability,Tau-BiFC cells; compounds marked *: measured at 3 μM,123%
"Cc1cnc(C(=O)Nc2ccc(NN=C(C#N)C#N)cc2C)cn1 [Compound 8, (3-methyl-4-(5-methylpyrazine-2-carboxamido)phenyl)carbonohydrazonoyl dicyanide]",remaining activity at 10 µM,tau protein; [1],0%
same,IC50,tau protein,40 nM
same,Cell viability (% @10 μM),Tau-BiFC cells,88%
"COc1cc(NN=C(C#N)C#N)ccc1C(=O)Nc1cncc(C)n1 [Compound 105, (3-methoxy-4-(6-methylpyrazin-2-ylcarbamoyl)phenyl)carbonohydrazonoyl dicyanide]",remaining activity at 10 µM,tau protein; [1],0%
same,IC50,tau protein,400 nM
same,Cell viability (% @10 μM),Tau-BiFC cells,142.9%
"Cc1ccccc1C(=O)Nc1ccc(NN=C(C#N)C#N)cn1 [Compound 25, (6-(2-methylbenzamido)pyridin-3-yl)carbonohydrazonoyl dicyanide]",remaining activity at 10 µM,tau protein; [1],0%
same,IC50,tau protein,390 nM
same,Cell viability (% @10 μM),Tau-BiFC cells,122.4%
"N#CC(C#N)=NNc1ccc(OCc2cc3ccccc3s2)cc1 [Compound 130, (4-(benzo[b]thiophen-2-ylmethoxy)phenyl)carbonohydrazonoyl dicyanide]",remaining activity at 10 µM,tau protein; [1],0%
same,Cell viability (% @10 μM),Tau-BiFC cells,113%
"N#CC(C#N)=NNc1ccc(NC(=O)c2cocn2)nc1 [Compound 113, (6-(oxazole-4-carboxamido)pyridin-3-yl)carbonohydrazonoyl dicyanide]",remaining activity at 10 µM,tau protein; [1],0%
same,IC50,tau protein,200 nM
same,Cell viability (% @10 μM),Tau-BiFC cells,147%
"N#CC(C#N)=NNc1ccc(OCc2cccnn2)cc1 [Compound 127, (4-(pyridazin-3-ylmethoxy)phenyl)carbonohydrazonoyl dicyanide]",remaining activity at 10 µM,tau protein; [1],0%
same,IC50,tau protein,1200 nM
same,Cell viability (% @10 μM),Tau-BiFC cells,134.9%
"N#CC(C#N)=NNc1ccc(NC(=O)c2cscn2)nc1 [Compound 112, (6-(thiazole-4-carboxamido)pyridin-3-yl)carbonohydrazonoyl dicyanide]",remaining activity at 10 µM,tau protein; [1],0%
same,IC50,tau protein,200 nM
same,Cell viability (% @10 μM),Tau-BiFC cells,158.2%
"Cc1cnc(C(=O)Nc2ccc(NN=C(C#N)C#N)c(Cl)c2)cn1 [Compound 5, (2-chloro-4-(5-methylpyrazine-2-carboxamido)phenyl)carbonohydrazonoyl dicyanide]",remaining activity at 10 µM,tau protein; [1],14.5%
same,Cell viability (% @10 μM),Tau-BiFC cells,61.2%
"N#CC(C#N)=NNc1ccc(Oc2ccc(C(F)(F)F)nc2)cc1 [Compound 89, (4-(6-(trifluoromethyl)pyridin-3-yloxy)phenyl)carbonohydrazonoyl dicyanide]",remaining activity at 10 µM,tau protein; [1],0%
same,IC50,tau protein,2400 nM
same,Cell viability (% @10 μM),Tau-BiFC cells,32.5%
"N#CC(C#N)=NNc1ccc(Oc2ccc(C#N)cc2)cc1 [Compound 87, (4-(4-cyanophenoxy)phenyl)carbonohydrazonoyl dicyanide]",remaining activity at 10 µM,tau protein; [1],0%
same,IC50,tau protein,1220 nM
same,Cell viability (% @10 μM),Tau-BiFC cells,39.4%
"N#CC(C#N)=NNc1ccc(C(=O)Nc2ncccn2)nc1 [Compound 43, (6-(pyrimidin-2-ylcarbamoyl)pyridin-3-yl)carbonohydrazonoyl dicyanide]",remaining activity at 10 µM,tau protein; [1],3%
same,Cell viability (% @10 μM),Tau-BiFC cells,168.6%
"COc1ccc(NC(=O)c2ccc(NN=C(C#N)C#N)cc2OC)cc1 [Compound 109, (3-methoxy-4-(4-methoxyphenylcarbamoyl)phenyl)carbonohydrazonoyl Dicyanide]",remaining activity at 10 µM,tau protein; [1],0%
same,IC50,tau protein,1400 nM
same,Cell viability (% @10 μM),Tau-BiFC cells,141.8%
"N#CC(C#N)=NNc1ccc(NC(=O)c2ccon2)nc1 [Compound 115, (6-(isoxazole-3-carboxamido)pyridin-3-yl)carbonohydrazonoyl dicyanide]",remaining activity at 10 µM,tau protein; [1],0%
same,IC50,tau protein,600 nM
same,Cell viability (% @10 μM),Tau-BiFC cells,157.6%
"Cc1cnc(C(=O)Nc2ccc(NN=C(C#N)C#N)nc2)cn1 [Compound 14, (5-(5-methylpyrazine-2-carboxamido)pyridin-2-yl)carbonohydrazonoyl dicyanide]",remaining activity at 10 µM,tau protein; [1],147%
same,Cell viability (% @10 μM),Tau-BiFC cells,102%
"Cc1cncc(NC(=O)c2ccc(NN=C(C#N)C#N)cn2)n1 [Compound 41, (6-(6-methylpyrazin-2-ylcarbamoyl)pyridin-3-yl)carbonohydrazonoyl dicyanide]",remaining activity at 10 µM,tau protein; [1],0%
same,Cell viability (% @10 μM),Tau-BiFC cells,115.2%
"Cc1cnc(C(=O)Nc2cc(C)c(NN=C(C#N)C#N)cn2)cn1 [Compound 13, (4-methyl-6-(5-methylpyrazine-2-carboxamido)pyridin-3-yl)carbonohydrazonoyl dicyanide]",remaining activity at 10 µM,tau protein; [1],30%
same,IC50,tau protein,550 nM
same,Cell viability (% @10 μM),Tau-BiFC cells,110%
"Cc1cc(C(=O)Nc2ccc(NN=C(C#N)C#N)cn2)ccc1F [Compound 21, (6-(4-fluoro-3-methylbenzamido)pyridin-3-yl)carbonohydrazonoyl dicyanide]",remaining activity at 10 µM,tau protein; [1],0%
same,IC50,tau protein,750 nM
same,Cell viability (% @10 μM),Tau-BiFC cells,104.3%
"Cc1cncc(NC(=O)c2ccc(NN=C(C#N)C#N)cc2C)n1 [Compound 54, (3-methyl-4-(6-methylpyrazin-2-ylcarbamoyl)phenyl)carbonohydrazonoyl dicyanide]",remaining activity at 10 µM,tau protein; [1],8.3%
same,Cell viability (% @10 μM),Tau-BiFC cells,116%
"Cc1cc(NN=C(C#N)C#N)ccc1Oc1cncnc1 [Compound 81, (3-methyl-4-(pyrimidin-5-yloxy)phenyl)carbonohydrazonoyl dicyanide]",remaining activity at 10 µM,tau protein; [1],0%
same,IC50,tau protein,550 nM
same,Cell viability (% @10 μM),Tau-BiFC cells,116.2%
"Cc1cccc(C(=O)Nc2ccc(NN=C(C#N)C#N)cn2)c1 [Compound 24, (6-(3-methylbenzamido)pyridin-3-yl)carbonohydrazonoyl dicyanide]",remaining activity at 10 µM,tau protein; [1],0%
same,IC50,tau protein,< 300 nM
same,Cell viability (% @10 μM),Tau-BiFC cells,103.9%
